Measured values as given in PubChem BioAssay (NCI).
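The compound was tested at five concentrations on cells cultured in 96-well plates, with a 48-hour exposure period. At the GI50, growth is halved. The concentration for full growth arrest is given as TGI.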

Columns and labels:
Experiment in all cases: NCI tumour cell line growth inhibition, 48 h
[1] = tested on: NCI-H226 lung
[2] = tested on: NCI-H522 lung
[3] = tested on: UACC-257 melanoma
[4] = tested on: ACHN renal
[5] = tested on: SNB-75 CNS
[6] = tested on: HCT-15 colon
[7] = tested on: K-562 leukemia
[8] = tested on: COLO 205 colon
[9] = tested on: IGROV1 ovarian
[10] = tested on: DU-145 prostate

SMILES | TGI [1] | TGI [2] | TGI [3] | TGI [4] | TGI [5] | TGI [6] | TGI [7] | TGI [8] | TGI [9] | TGI [10] | GI50 [9] | GI50 [1] | GI50 [2] | GI50 [3] | GI50 [4] | GI50 [5] | GI50 [6] | GI50 [7]
CC(=O)OC12/C(=N/O)CCCCCC1c1ccccc12 (configuration not stated) | > 100 µM | 98.9 µM | > 100 µM | > 100 µM | > 100 µM | > 100 µM | > 100 µM | > 100 µM |  |  |  |  |  |  |  |  |  | 
COc1cc(C2SCC(=O)N2c2cc(Cl)c(Cl)cc2Cl)cc(OC)c1OC (configuration not stated) | > 100 µM | > 100 µM | > 100 µM | > 100 µM |  | > 100 µM | > 100 µM | > 100 µM | > 100 µM | > 100 µM |  |  |  |  |  |  |  | 
CCc1ccc(N=Cc2cc(OC)c(OC)c(OC)c2)cc1 |  | > 100 µM | > 100 µM | > 100 µM | > 100 µM | > 100 µM | 73.3 µM | > 100 µM | > 100 µM |  |  |  |  |  |  |  |  | 
COC1=C2CC(C)CC(OC)C(O)C(C)/C=C(\C)C(OC(N)=O)C(OC)/C=C\C=C(/C)C(=O)NC(=C(C=NC(C)(C)C)C1=O)C2=O (configuration not stated) | 13.8 µM | 1.63 µM | 17.8 µM |  | 6.15 µM | 33.1 µM | 6.26 µM | 10.6 µM | 53.2 µM |  |  |  |  |  |  |  |  | 
O=c1sc2c(s1)SSSSS2 | > 50 µM | > 50 µM | > 50 µM | > 50 µM |  | > 50 µM | > 50 µM | > 50 µM | > 50 µM | > 50 µM |  |  |  |  |  |  |  | 
CN(C)CCOc1cccc2c1C(=O)c1ccccc1C2=O | 22.2 µM | 20.5 µM | 25.8 µM | > 100 µM | 28.8 µM | 27.3 µM | 33.7 µM | 16.1 µM | 43.4 µM |  |  |  |  |  |  |  |  | 
O=[N+]([O-])c1nc(-c2ccccn2)[nH]c1[N+](=O)[O-] | > 100 µM | 37.1 µM | > 100 µM | > 100 µM | > 100 µM |  | > 100 µM | > 100 µM | > 100 µM |  |  |  |  |  |  |  |  | 
O=P1(O)C=CC2(CCCC2)O1 |  | > 100 µM | > 100 µM | > 100 µM | > 100 µM | > 100 µM | > 100 µM | > 100 µM | > 100 µM | > 100 µM |  |  |  |  |  |  |  | 
Cc1ccc2c3c1O[C@H]1c4[nH]c5ccccc5c4C[C@@]4(O)[C@@H](C2)N(C)CC[C@]314 | 23.1 µM | 36 µM | 28.2 µM | 29.5 µM |  | 32.5 µM | 36.8 µM | 30.2 µM | 34.9 µM | 39 µM |  |  |  |  |  |  |  | 
CC(=O)Nc1ccc(Nc2cc(=O)[nH]c(=O)[nH]2)cc1 | > 100 µM |  | > 100 µM | > 100 µM | > 100 µM | > 100 µM | > 100 µM | > 100 µM | > 100 µM | > 100 µM |  |  |  |  |  |  |  | 
CCCCCC(C)(C)CCC(=O)OC1OC(COC2OC(COC3OC(CO)C(O)C(O)C3O)C(O)C(O)C2O)C(O)C(O)C1O (configuration not stated) | > 100 µM | > 100 µM | > 100 µM | > 100 µM |  | > 100 µM | > 100 µM | > 100 µM | > 100 µM | > 100 µM |  |  |  |  |  |  |  | 
O=C(Nc1cccc(-n2ccc3c(NC(=O)c4ccccc4)nccc32)c1)c1ccc(N2CCOCC2)c(C(F)(F)F)c1 | > 92.9 µM | 0.545 µM | > 100 µM | > 63.5 µM | 25.9 µM | > 64.7 µM | > 100 µM |  | > 75.4 µM |  | 0.057 µM | 0.0827 µM | 0.0319 µM | 2.36 µM | 0.0853 µM | 0.023 µM | 0.037 µM | 0.0387 µM
OCC1OC(n2nc(-c3ccccc3)nc2-c2cnccn2)C(O)C(O)C1O (configuration not stated) |  | > 100 µM | > 100 µM |  | > 100 µM | > 100 µM | > 100 µM | > 100 µM | > 100 µM | > 100 µM |  |  |  |  |  |  |  | 
CC(C)(C)c1cc(CC2C(=O)c3ccccc3C2=O)cc(C(C)(C)C)c1O |  | 14.4 µM | 15.4 µM | > 100 µM |  | 14.8 µM | 13.1 µM | 30.7 µM | 26.4 µM | 14.7 µM |  |  |  |  |  |  |  | 
COC(=O)c1c2c(cc3c1CC1(Cc4cc5c(c(C=O)c4C1)CCCC5)C3)CCCC2 (configuration not stated) | > 100 µM | > 100 µM | > 100 µM | > 100 µM |  | > 100 µM | 85.3 µM | 36.6 µM | > 100 µM |  |  |  |  |  |  |  |  | 
COc1cc(C2SC(N)=Nc3c2c(C)nn3C(=O)c2ccccc2O)cc(OC)c1OC (configuration not stated) | > 10 µM |  | > 10 µM | > 10 µM | 6.85 µM | > 10 µM | > 10 µM | > 10 µM | 9.01 µM | > 10 µM |  |  |  |  |  |  |  | 
COc1ccc2nc3cc(Cl)ccc3c(NCCCN(Cc3cc(OC)c(OC)c(OC)c3)Cc3cc(OC)c(OC)c(OC)c3)c2c1 | 34.5 µM | 25.4 µM | 28.8 µM | 27.2 µM |  |  | 3.77 µM | 23.5 µM | 35.1 µM | 27.3 µM |  |  |  |  |  |  |  | 
